Source: patent US11000511B2, “Chemical compounds as antibiotics” (priority 2017, dated 2021)

Legend:
[1] = molecular target: T1, purified LasB protein from P. aeruginosa (Pseudomonas aeruginosa, UniProt P14756); assay: Fluorometric assay to determine Ki (Assay 2); assay type: biochemical
T1 construct: purchased Merck or Charles River Laboratories
Method: (§1) Experiments were therefore conducted (1) to measure the potency of inhibition of compounds of the invention against purified Pseudomonas aeruginosa LasB enzyme and also experiments were conducted (2) to measure the ability of compounds of the invention to inhibit LasB-catalysed elastin degradation. The first assay uses a commercial fluorescent synthetic peptide and purified LasB enzyme. The LasB hydrolysis kinetics are measured allowing the determination of the IC50 and Ki of the inhibitors; the second is a more physiological assay using dialysed Pseudomonas aeruginosa supernatant as source of enzyme, plus its natural substrate Elastin. It is an “end point assay” that determines the percentage of LasB inhibition by each compound for one particular time point and inhibitor concentration. Technical details are described below:
This assay uses commercially available substrate (Abz-Ala-Gly-Leu-Ala-p-Nitro-Benzyl-Amide (Ex: 340 nm, Em: 415 nm) from Peptide International) and purified LasB protein from P. aeruginosa (provided by Merck or Charles River Laboratories). It is performed to determine LasB elastase activity and assess compound inhibition in 96-well plate format. Some compounds of Formula (I) were assessed using the method of Assay 1 (described below). Other compounds of Formula (I) were assessed using the alternative but equivalent method of Assay 2 (described below).
Method: 10 to 140 ng/ml purified LasB is incubated with 250 μM Abz-Ala-Gly-Leu-Ala-p-Nitro-Benzyl-Amide in 50 mM Tris-HCl pH 7.4, 2.5 mM CaCl2), 0.01% of Triton X100 at 37° C. LasB activity (corresponding to fluorescence emission induced by substrate hydrolysis) is measured over 30 min at 37° C. with a fluorescence plate reader such as the Perkin Elmer Envision or similar. Different range of inhibitor concentrations are routinely assessed depending of inhibitor potency from 0.006 to 200 μM (Assay 1; 2-fold dilutions series) or from 0.0016 to 200 μM (Assay 2; 2-fold dilutions series) in order to determine IC50.
The equation used to calculate the Ki from IC50 is: Ki=IC50/(1+([S]/Km)) where [S]=250 μM and Km=214 μM.

[2] = molecular target: T2, LasB elastase activity in dialysed supernatant from P. aeruginosa strain PA01 (Pseudomonas aeruginosa, UniProt P14756); assay: Elastin Congo Red assay to determine % inhibition (Assay 2); assay type: biochemical; settings: read-out: Elastin hydrolysis % inhibition @ 50/25 μM inhibitor concentration Assay 2
T2 construct: uses as source of enzyme dialysed supernatant from P. aeruginosa; endogenous in cells; host or cells: P. aeruginosa strain PA01 culture supernatant, filtered and dialysed
T2 sequence (P14756 198-498): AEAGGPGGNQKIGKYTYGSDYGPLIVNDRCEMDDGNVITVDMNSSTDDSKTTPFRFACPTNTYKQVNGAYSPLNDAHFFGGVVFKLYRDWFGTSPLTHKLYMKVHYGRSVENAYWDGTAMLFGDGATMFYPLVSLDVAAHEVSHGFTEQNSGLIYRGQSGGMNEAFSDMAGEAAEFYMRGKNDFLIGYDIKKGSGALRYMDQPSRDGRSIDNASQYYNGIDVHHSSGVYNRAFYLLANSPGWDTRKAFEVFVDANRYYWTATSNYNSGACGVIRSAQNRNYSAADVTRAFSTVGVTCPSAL
Method: as §1
The Elastin assay uses as source of enzyme dialysed supernatant from P. aeruginosa and the elastin congo red as substrate. The natural LasB substrate, elastin, is complexed with the congo red dye (Elastin Congo Red, ECR). The elastolysis activity from the culture supernatant will degrade elastin and release the congo red dye into the supernatant. This red dye release can be measured with a spectrophotometer. Some compounds of Formula (I) were assessed using the method of Assay 1 (described below). Other compounds of Formula (I) were assessed using the alternative but equivalent method of Assay 2 (described below).
Method (Assay 2): To determine LasB elastase activity and assess compound inhibition, an overnight culture of P. aeruginosa strain PA01 is diluted in LB medium. After reaching an OD600 nm of 0.6, this culture is diluted and incubated for additional 18-24 h in a shaking incubator. Culture supernatants are recovered by centrifugation and filtrated through a […] filter. These supernatants are dialysed (filtration molecules <20 kDa) into a 50 mM Tris-HCl pH 7.4, 2.5 mM CaCl2 solution at 4° C. under agitation for 24 h. Supernatant dialysed is then mixed volume/volume with the ECR suspension (20 mg/mL of ECR in 100 mM Tris-HCl pH 7.4 buffer supplemented with 1 mM CaCl2) supplemented with TritonX 100 (final concentration of 0.01%) in presence of DMSO (positive control) and/or different concentrations of compound (routinely […]). As a negative control, the dialysed supernatant is replaced by Tris-HCl solution (50 mM Tris-HCl pH 7.4, 2.5 mM CaCl2). The mixed reaction is then incubated overnight in a 37° C. shaking incubator. The reaction supernatant is recovered by centrifugation and the release of congo-red is measured by its absorbance at 495 nm (OD495 nm).
Percentage inhibition is determined using the following equation: ((OD495 nm value of positive control−OD495 nm value of negative control)−(OD495 nm value of treated supernatant−OD495 nm value of negative control))/(OD495 nm value of positive control−OD495 nm value of negative control)×100.

T1 sequence (P14756 198-498): as above

SMILES	Ki [1] [nM]	inhibition at 50 µM [2] [%]
O=C(O)CC1(C(=O)NCc2nc3ccc(O)cc3s2)Cc2ccccc2C1 [Example 107, 2-[2-[(6-hydroxy-1,3-benzothiazol-2-yl)methylcarbamoyl]indan-2-yl]acetic acid]	< 300	> 60
CCOc1ccc2nc(CNC(=O)C3(CC(=O)O)Cc4ccccc4C3)sc2c1 [Example 108, 2-[2-[(6-ethoxy-1,3-benzothiazol-2-yl)methylcarbamoyl]indan-2-yl]acetic acid]	< 300	> 60
O=C(O)CC1(C(=O)NCc2nc3ccc(OCCO)cc3s2)Cc2ccccc2C1 [Example 109, 2-[2-[[6-(2-hydroxyethoxy)-1,3-benzothiazol-2-yl]methylcarbamoyl]indan-2-yl]acetic acid]	< 300	> 60
COc1cc2nc(CNC(=O)C3(CC(=O)O)Cc4ccccc4C3)sc2cc1OC [Example 114, 2-[2-[(5,6-dimethoxy-1,3-benzothiazol-2-yl)methylcarbamoyl]indan-2-yl]acetic acid]	< 300	> 60
O=C(O)CC1(C(=O)NCc2nc3cc4c(cc3s2)OCO4)Cc2ccccc2C1 [Example 115, 2-[2-([1,3]dioxolo[4,5-f][1,3]benzothiazol-6-ylmethylcarbamoyl)indan-2-yl]acetic acid]	< 300	> 60
O=C(O)CC1(C(=O)NCc2nc3ccccc3s2)Cc2cc(F)c(F)cc2C1 [Example 120, 2-(2-((benzo[d]thiazol-2-ylmethyl)carbamoyl)-5,6-difluoro-2,3-dihydro-1H-inden-2-yl)acetic acid]	< 300	> 60
COc1cc2sc(CNC(=O)C3(CC(=O)O)Cc4ccccc4C3)nc2cc1N1CC(N(C)C)C1 [Example 122, 2-(2-(((5-(3-(dimethylamino)azetidin-1-yl)-6-methoxybenzo[d]thiazol-2-yl)methyl)carbamoyl)-2,3-dihydro-1H-inden-2-yl)acetic acid]	< 300	> 60
COc1cc2sc(CNC(=O)C3(CC(=O)O)Cc4ccccc4C3)nc2cc1N1CC([N+](C)(C)C)C1 [Example 123, 2-(2-(((6-methoxy-5-(3-(trimethylammonio)azetidin-1-yl)benzo[d]thiazol-2-yl)methyl)carbamoyl)-2,3-dihydro-1H-inden-2-yl)acetate]	< 300	> 60
COc1cc2sc(CNC(=O)C3(CC(=O)O)Cc4cc(F)c(F)cc4C3)nc2cc1OCCCN(C)C [Example 124, 2-(2-(((5-(3-(dimethylamino)propoxy)-6-methoxybenzo[d]thiazol-2-yl)methyl)carbamoyl)-5,6-difluoro-2,3-dihydro-1H-inden-2-yl)acetic acid]	< 300	> 60
COc1cc2sc(CNC(=O)C3(CC(=O)O)Cc4cc(F)c(F)cc4C3)nc2cc1OCCC[N+](C)(C)C [Example 125, 2-(5,6-difluoro-2-(((6-methoxy-5-(3-(trimethylammonio)propoxy)benzo[d]thiazol-2-yl)methyl)carbamoyl)-2,3-dihydro-1H-inden-2-yl)acetate]	< 300	> 60
COc1cc2sc(CNC(=O)C3(CC(=O)O)Cc4ccccc4C3)nc2cc1OCCN(C)C [Example 126, 2-(2-(((5-(2-(dimethylamino)ethoxy)-6-methoxybenzo[d]thiazol-2-yl)methyl)carbamoyl)-2,3-dihydro-1H-inden-2-yl)acetic acid]	< 300	> 60
O=C(O)CC1(C(=O)NCc2nc3ccc(OC(F)(F)F)cc3s2)Cc2ccccc2C1 [Example 128, 2-[2-[[6-(trifluoromethoxy)-1,3-benzothiazol-2-yl]methylcarbamoyl]indan-2-yl]acetic acid]	< 300	> 60
